From patent US20250288518A1, “METHODS OF USING RADIPRODIL IN THE TREATMENT OF DISORDERS” (GRIN Therapeutics, Inc., priority 2023, published 2025)
Several values for one entry are separate records, joined by “and”; a condition that tells them apart may be missing. Equal entries are not always repeated. Where two headings read alike, the source gives them in different places.

Legend:
[1] = system: pentylenetetrazole (PTZ)-induced generalized clonic-tonic seizures; test: juvenile PTZ rat model; assay type: in vivo
Protocol: (§1) Radiprodil anticonvulsant efficacy was specifically tested in rats at different time points during postnatal development, using pentylenetetrazole (PTZ) as a convulsant, to induce generalized clonic-tonic seizures. The activity of radiprodil in this juvenile PTZ rat model was tested up to 30 mg/kg, showing efficacy at a dose of 1 mg/kg. The calculated free plasma fraction of an orally administered 1 mg/kg dose is expected to give around 60% occupancy of the NR2B receptor, based on an ex-vivo occupancy study in rodents and assuming a 1:1 brain to plasma ratio, see below for further details.

[2] = biological target: T1, NR2B receptor (Rattus norvegicus, UniProt P35439+Q00960); test: NR2B occupancy at rat doses, based on ex-vivo occupancy study in rodents
T1 construct: occupancy of the NR2B receptor, based on an ex-vivo occupancy study in rodents; from tissue; host or cells: rodent brain (ex vivo occupancy; brain is implied by the 1:1 brain to plasma ratio)
Protocol: as §1

[3] = system: audiogenic seizures; test: audiogenic seizure model (generalized seizures); assay type: in vivo; conditions: adult mice
[4] = in vivo; conditions: rat
[5] = in vivo; conditions: dog
[6] = 9-month dog toxicology study; assay type: in vivo; conditions: 1.5 mg/kg/day
[7] = system: countable motor seizure (CMS); test: phase 1B study, seizure cohort: efficacy; assay type: in vivo, human
Source text: Investigational Product (IP): Radiprodil. This example describes an open-label, multicenter phase 1B study being conducted to evaluate the safety, tolerability, and pharmacokinetics (PK) of multiple individually titrated doses of radiprodil and to assess the treatment effect on seizures in participants with drug-resistant seizures caused by gain-of-function (GoF) variants in the GRIN1, GRIN2A, GRIN2B, or GRIN2D genes (GRIN2B GoF variants in the US only).
(§2) This is a global, open-label, multicenter, phase 1B study to evaluate the safety, tolerability, and PK of multiple individually titrated doses of radiprodil and to assess the treatment effect on seizures and behavioral symptoms in 2 cohorts of pediatric participants: 1 cohort of participants with drug resistant seizures (with or without behavioral symptoms) (Cohort 1) and 1 cohort of participants with behavioral symptoms (but no qualifying seizures) (Cohort 2) caused by GoF variants in the GRIN1, 2A, 2B, or 2D genes (GRIN2B GoF variants only in the US). These GoF variants are gene mutations that cause an increased sensitivity of NMDA receptors to glutamate or through decreased inhibition by magnesium, altered affinity to glycine, or other relevant changes considered to increase NMDA transmission. Drug-resistant seizures are defined as a failure to respond to at least 2 antiseizure medication (ASM) therapies taken at adequate doses for an appropriate duration with assured medication adherence as determined by the treating physician. Participants with seizures to be enrolled in the first cohort should have at least 1 observable motor seizure per week and ≥4 observable motor seizures in the prospective 4-week Observation Period.
A seizure cohort of patients from 6 months to 12 years of age with known GoF variants confirmed via method described in Myers, et al., Hum Mol Genetics. 2023, 32:2857-2871, was enrolled. The patients had drug-resistant seizures with or without behavioral symptoms. Patients also had ≥1 weekly countable motor seizure (CMS) with ≥4 generalized or focal seizures during the observation period. Motor seizures included drop seizures; generalized onset seizures included tonic-clonic, tonic, bilateral clonic, atonic, myoclonic-atonic, and myoclonic-tonic-clonic seizures; and focal seizures included seizures with bilateral hyperkinetic motor features and clonic seizures.
Primary endpoints included safety, tolerability, and radiprodil plasma concentrations. Key secondary endpoints (aka, change from baseline in observable daily CMS frequency using an electronic diary (eDiary)), included ≥50%, ≥90%, and 100% reductions from baseline in seizure frequency; proportion of seizure-free days; and Clinical Global Impressions of Change (CGI-C) and Caregiver Global Impressions of Change (CaGI-C), from baseline to the end of the maintenance period.

[8] = phase 1B study, seizure cohort: treatment emergent adverse events; assay type: in vivo
Source text: The primary objectives of this study are to determine the safety and tolerability of multiple individually titrated doses of radiprodil as an add-on therapy to standard of care (SOC) in pediatric participants; establish a safe and well-tolerated dose; and to determine the pharmacokinetics (PK) and plasma exposure of radiprodil. Endpoints of these primary objectives include: adverse events (AEs), serious adverse events (SAEs), and adverse drug reactions (ADRs) (frequency, type, severity, and duration); changes in vital signs; physical examination findings; 12-lead electrocardiogram (ECG) findings; clinically significant changes in laboratory parameters; emergence of new seizure types; occurrence of suicidal ideation or behavior; determination of the maximum tolerated dose of radiprodil based on safety and tolerability data; and plasma concentrations of radiprodil.
Pyrexia, diarrhoea, and respiratory tract infection were the most common TEAEs. Three patients experienced SAEs, all unrelated to radiprodil treatment. One each of adenovirus infection, bronchiolitis, and viral pneumonia

[9] = system: behavioral symptoms; test: phase 1B study, behavioral cohort: global impressions of change; assay type: in vivo, human; conditions: clinicians and caregivers
Source text: as §2
A behavioral cohort of patients from 6 months to 12 years of age with known GoF variants confirmed via method described in Myers, et al., Hum Mol Genetics. […]

[10] = phase 1B study, behavioral cohort: treatment emergent adverse events; assay type: in vivo, human
Source text: Pyrexia, diarrhoea, and respiratory tract infection were the most common TEAEs. Three patients experienced SAEs, all unrelated to radiprodil treatment. One each of adenovirus infection, bronchiolitis, and viral pneumonia.

[11] = Phase 1 study of normal healthy human subjects, 45 mg Radiprodil (30% Formulation) fed and fasted; assay type: in vivo; conditions: for AUC(0-inf) / AUC(0-t) / Cmax: human, in vivo, oral; for AUC(0-inf): read-out: AUCinf Geometric LSM; for AUC(0-t): read-out: AUClast Geometric LSM; for Cmax: read-out: Cmax Geometric LSM
[12] = cited from earlier work
[13] = 135 mg daily (45 mg tid) up to 14 weeks; cited from earlier work
[14] = all unrelated to radiprodil treatment
[15] = 2 participants, doses up to 0.2 mg/kg bid

T1 sequence (Q00960 27-1482, other chains not shown): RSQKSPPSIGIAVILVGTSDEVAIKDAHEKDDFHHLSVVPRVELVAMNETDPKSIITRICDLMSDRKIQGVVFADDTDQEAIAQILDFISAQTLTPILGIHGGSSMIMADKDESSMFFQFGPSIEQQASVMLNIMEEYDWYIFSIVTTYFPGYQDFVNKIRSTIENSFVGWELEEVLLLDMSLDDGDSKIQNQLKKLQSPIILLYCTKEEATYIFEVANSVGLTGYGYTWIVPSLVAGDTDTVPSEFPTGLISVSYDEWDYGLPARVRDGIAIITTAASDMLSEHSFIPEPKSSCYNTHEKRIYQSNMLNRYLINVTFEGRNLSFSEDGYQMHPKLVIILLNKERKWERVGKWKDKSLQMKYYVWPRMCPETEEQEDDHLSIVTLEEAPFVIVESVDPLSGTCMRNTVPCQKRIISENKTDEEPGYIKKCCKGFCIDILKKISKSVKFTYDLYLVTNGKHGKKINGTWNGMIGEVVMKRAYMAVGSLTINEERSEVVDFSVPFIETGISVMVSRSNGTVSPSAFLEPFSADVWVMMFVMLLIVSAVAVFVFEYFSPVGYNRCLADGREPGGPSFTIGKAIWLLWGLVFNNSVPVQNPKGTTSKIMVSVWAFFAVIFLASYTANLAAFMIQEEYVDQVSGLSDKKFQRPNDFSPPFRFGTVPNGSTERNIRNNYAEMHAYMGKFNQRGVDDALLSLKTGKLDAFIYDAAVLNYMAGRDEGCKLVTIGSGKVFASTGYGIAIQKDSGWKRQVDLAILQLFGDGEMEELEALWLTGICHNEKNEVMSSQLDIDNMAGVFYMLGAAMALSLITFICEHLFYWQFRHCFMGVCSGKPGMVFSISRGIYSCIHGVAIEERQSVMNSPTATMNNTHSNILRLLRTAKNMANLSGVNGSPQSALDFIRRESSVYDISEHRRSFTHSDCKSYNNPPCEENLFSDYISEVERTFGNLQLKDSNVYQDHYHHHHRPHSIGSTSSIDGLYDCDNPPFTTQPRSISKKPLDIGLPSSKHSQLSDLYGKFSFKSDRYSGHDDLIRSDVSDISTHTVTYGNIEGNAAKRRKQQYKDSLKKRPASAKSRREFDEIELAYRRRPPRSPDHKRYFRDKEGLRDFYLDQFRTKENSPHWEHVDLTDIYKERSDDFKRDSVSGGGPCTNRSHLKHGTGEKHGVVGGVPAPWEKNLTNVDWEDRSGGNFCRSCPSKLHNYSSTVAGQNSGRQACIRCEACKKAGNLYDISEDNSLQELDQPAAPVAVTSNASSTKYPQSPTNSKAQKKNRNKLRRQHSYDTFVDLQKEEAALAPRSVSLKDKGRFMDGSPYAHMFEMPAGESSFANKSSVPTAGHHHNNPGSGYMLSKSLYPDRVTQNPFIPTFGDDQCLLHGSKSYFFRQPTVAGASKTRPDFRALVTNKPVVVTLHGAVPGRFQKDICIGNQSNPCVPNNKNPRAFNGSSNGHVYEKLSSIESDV

O=C(Nc1ccc2[nH]c(=O)oc2c1)C(=O)N1CCC(Cc2ccc(F)cc2)CC1 [Radiprodil]
tonic phases of PTZ-induced convulsions ([1]; 10 mg/kg, postnatal day 12 and postnatal day 18 rats): completely blocked | dose showing efficacy in juvenile PTZ rat model ([1]; tested up to 30 mg/kg): 1 mg/kg | NR2B occupancy ([2]; 10 mg/kg): ~90% | occupancy of the NR2B receptor ([2]; orally administered 1 mg/kg, calculated free plasma fraction, 1:1 brain to plasma ratio assumed): around 60% | anticonvulsant efficacy in audiogenic seizure model [3]: anticonvulsant activity in the same range of doses/exposures | AUC [4]: 9550 ng·h/mL | AUC0-24h at NOAEL [4]: 9,555 ng×h/mL | AUC(0-t) [4]: 9560 ng·h/mL | Cmax [4]: 1400 ng/mL | Cmax at NOAEL [4]: 1404 ng/mL | NOAEL at 4 weeks [4]: 100 mg/kg/day | exposure (total Cmax and AUC) of 0.05 mg/kg bid lower than NOAEL exposure [4]: more than 20 fold | NOAEL ([4]; 4 weeks): 100 mg/kg/day | NOAEL at 13 weeks [5]: 1.5 mg/kg/day | AUC(0-t) ([5]; 1.5 mg/kg/day): 3750 ng·h/mL | Cmax ([5]; 1.5 mg/kg/day): 722 ng/mL | AUC(0-t) ([6]; dog, plasma, at 6-months, read-out: average AUC0-24h): 7060 ng·h/mL | seizures or convulsions ([6]; up to 6 months): no seizures or convulsions were observed | median reduction in CMS ([7]; 8-week maintenance period): ~86% | patients seizure-free during 80% of days ([7]; 8-week maintenance period): 6 of 7 | patients with reduction in CMS of 100% ([7]; 8-week maintenance period): 14.3% | patients with reduction in CMS of ≥50% ([7]; 8-week maintenance period): 71.4% | patients with reduction in CMS of ≥90% ([7]; 8-week maintenance period): 42.9% | patients with reductions from baseline in CMS frequency ([7]; seizure cohort): 6 of 7 | CGI-C and CaGI-C ([7]; seizure cohort, clinicians and caregivers): clinical improvement in most patients | Abnormal behavior, % ([8]; Seizure Cohort (n = 8)): (12.5) % | Agitation, % ([8]; Seizure Cohort (n = 8)): (12.5) % | Any TEAE, % ([8]; Seizure Cohort (n = 8)): (100) % | Cough, % ([8]; Seizure Cohort (n = 8)): (25.0) % | Diarrhoea, % ([8]; Seizure Cohort (n = 8)): (25.0) % | Dystonia, % ([8]; Seizure Cohort (n = 8)): (25.0) % | Fatigue, % ([8]; Seizure Cohort (n = 8)): (12.5) % | Gastroenteritis, % ([8]; Seizure Cohort (n = 8)): (25.0) % | Pyrexia, % ([8]; Seizure Cohort (n = 8)): (50.0) % | Respiratory tract infection, % ([8]; Seizure Cohort (n = 8)): (25.0) % | patients with SAEs [8, 14]: Three | tolerability ([8]; seizure cohort): generally well-tolerated | CGI-C and CaGI-C [9]: clinical improvement in most patients | Abnormal behavior, % ([10]; Behavioral Cohort (n = 7)): 28.6% | Agitation, % ([10]; Behavioral Cohort (n = 7)): 28.6% | Any TEAE, % ([10]; Behavioral Cohort (n = 7)): 85.7% | Cough, % ([10]; Behavioral Cohort (n = 7)): 14.3% | Diarrhea, % ([10]; Behavioral Cohort (n = 7)): 28.6% | Dystonia, % ([10]; Behavioral Cohort (n = 7)): 14.3% | Fatigue, % ([10]; Behavioral Cohort (n = 7)): 28.6% | Gastroenteritis, % ([10]; Behavioral Cohort (n = 7)): 14.3% | Pyrexia, % ([10]; Behavioral Cohort (n = 7)): 14.3% | Respiratory tract infection, % ([10]; Behavioral Cohort (n = 7)): 28.6% | patients with SAEs [10, 14]: Three | tolerability ([10]; behavioral cohort): generally well-tolerated | AUCinf Geometric LSM Ratio (Fed/Fasted) [11]: 148.4% | AUClast Geometric LSM Ratio (Fed/Fasted) [11]: 155.8% | Cmax Geometric LSM Ratio (Fed/Fasted) [11]: 259.6% | AUC(0-inf) ([11]; Fasted): 1890 ng·h/mL | AUC(0-t) ([11]; Fasted): 1780 ng·h/mL | Cmax ([11]; Fasted): 81.3 ng/mL | AUC(0-inf) ([11]; Fed): 2810 ng·h/mL | AUC(0-t) ([11]; Fed): 2770 ng·h/mL | Cmax ([11]; Fed): 211 ng/mL | AUC0-4 [12, 15]: up to 1036 ng×h/mL | AUC(0-t) [12, 15]: up to 1036 ng×h/mL | Cmax [12, 15]: up to 208 ng/mL | safety and tolerability ([12]; 3 infants, treatment for up to 34 days): safe and well tolerated | AUC [13]: 9000 ± 2387 ng·h/mL | AUC0-24h [13]: 6875 ng·h/mL | Cmax [13]: 487 ± 129 ng/mL and 482 ± 129 ng/mL
